Data from patent publication US7101854B2, “Tetrapeptide stimulating the functional activity of hepatocytes, pharmacological substance on its basis and the method of its application” (Sankt-Peterburgskaya Obschestvennaya Organizatsiya …, priority 2000, dated 2006).
Residues, ends and D or L forms follow the SMILES beside them.

What was measured:
hepatoma-27 = test: Growth of transplanted hepatoma-27 in rats; type: in vivo; settings: for Mean life span (days after the tumour transplantation): rats with hepatoma-27; for Tumour growth: tetrapeptide 1 μg/kg s.c. 10 days, stabilised since 30th day, cyclophosphamide 100 μg/kg i.p. once, from 16th day; for Animals with complete tumour resolution: tetrapeptide: days 16, 25, 43, cyclophosphamide: days 28, 32, 41 after transplantation
Method: The study was performed on 37 female rats weighing 150-200 g with hepatoma-27 subcutaneously transplanted to the right femur region. […] Cyclophosphamide administered once intraperitoneally in the dose of 100 μg/kg was employed as a positive control. The tumour dynamics and animals' survival rate were assessed in experiments.

[1] = tested on: hepatocyte monolayer culture of rats of various ages; test: Intensity of protein synthesis ([3H]-leucin inclusion) in monolayer hepatocyte culture; type: cell-based; settings: 0.005 μg/ml, 4 hours
Method: The intensity of protein synthesis was investigated in a hepatocyte culture of rats aged 4, 8 and 18 months.
To isolate hepatocytes, rat liver was perfused with calcium-free Hanks' solution added 0.5 mM of EDTA and then 0.05% collagenase solution in Medium 199. The cellular suspension was filtered out and centrifuged. The hepatocyte suspension in the concentration of 5×10^5 was introduced into Petri's dishes, their bottoms surfaced with collagen-covered glass. Applied Medium 199 contained no bovine serum but was added 0.2 mg/ml of albumen and 5 μg/ml of insulin. The dishes with glass-covered bottoms were placed in a thermostat at 37° C., aerated and added CO2. […]
Protein synthesis was assessed by [^3H]-leucin inclusion regarding the standard errors for a free marked leucin pull in the same culture. […] Radioactivity of the pull of free intracellular leucin and cellular proteins (in hyamine fraction) after adding the corresponding scintillators was measured on a radioactivity counter SL-30.
The intensity of protein synthesis was calculated by the formula: Icorr=Ii×Pav/Pi(cpm), where
Icorr—inclusion of leucin regarding the standard errors of free leucin pull, Ii—measured radioactivity of the proteins for i-culture, Pav—mean radioactivity of proteins and pull for the cultures studied in this experiment, Pi—total radioactivity of proteins and pull of the same culture.

[2] = tested on: liver fragments of 10–11-days old chicken embryos; test: Development of liver explants (square index); type: cell-based; settings: 20 ng/ml, third day of cultivation
Method: The experiments were carried out in 53 liver fragments of 10–11-days old chicken embryos. Nutrient medium for the explant cultivation consisted of 35% of Eagle's solution, 25% of foetal calf serum, 35% of Hank's solution and 5% of chicken embryonic extract. The mixture is added glucose (0.6%), insulin (0.5 unit/ml), penicillin (100 unit/ml) and glutamine (2 mM). The liver fragments were placed in this medium and cultivated in Petri's dishes in a thermostat at 36.7° C. during 48 hours. […] Square index (SI) was taken for a biological activity criterion and calculated as a correlation of the total explant square including the growth zone to the initial square of a liver fragment. The SI values were expressed per cent, the control SI value taken for 100%.

white mongrel male mice = test: Acute toxicity according to Kerber, single intramuscular administration; type: in vivo
Text: This study was designed to define the tolerable toxic doses of the preparation, assess the degree and character of pathologic alterations in various organs and systems of the organism and reveal the dependence of toxic effects on the dosage and duration of the preparation intake.
Examined were 72 white mongrel male mice weighing 20–22 g. The mice were kept in vivarium under standard regimen and fed upon standard rations. They were randomised to six equal groups, 12 mice in each. The animals were once intramuscularly administered with 0.25 ml of the preparation in the doses of 1 mg/kg, 2 mg/kg, 3 mg/kg, 4 mg/kg and 5 mg/kg (several thousand times exceeding the therapeutic dose recommended for clinical trials). The control animals received the same amount of natural saline solution.
No alterations in their general state, behaviour, motor activity, hair and skin integument, physiological discharge were registered.

[3] = tested on: patients with chronic persistent hepatitis; test: Clinical application in patients with chronic persistent hepatitis; type: in vivo, human
Method: The trial was carried out on 23 patients aged 32–53 years. The disease duration constituted 10–20 years. 79% of the patients had virus hepatitis A in the case history and 11%—virus hepatitis B. The majority of the patients complained of pains in the right hypochondrium, general weakness and quick fatigability. 45% of the patients noted dyspeptic disorders. All the patients had previously received periodic conventional medications.
The control group included 12 analogous patients treated by conventional methods.
The patients' complaints were assessed in dynamics. Performed were total blood and urine counts, biochemical blood investigation (“REFLOTRON”, Boehringer Mannheim, Germany) and immune assay of the peripheral blood (definition of Ig according to Mancini). Ultrasound investigation of-the liver was carried out on an ultrasound apparatus (ALOKA, Japan). Against the background of the applied treatment 93% of the patients noted weakness elimination, improved appetite and increased workability. […] The biochemical test results were in the focus of attention during the patients' examination. They reflected aminotransferase activity, pigment- and protein-forming functions of the liver. 72% of the patients registered hyperbilirubinemia, increased level of alanine aminotransferase (ALT) and slight rise in γ-globulin fraction of the blood proteins, chiefly, due to IgM, which evidenced a certain activity of the chronic inflammatory process.

white mongrel rats = test: Subacute toxicity, daily intramuscular injection for 90 days; type: in vivo; settings: i.m. 1 μg/kg, 0.3 mg/kg, 3 mg/kg daily for 90 days
Method: The animals were intramuscularly injected with the preparation once a day in the doses of 1 μg/kg, 0.3 mg/kg, 3 mg/kg in 0.5 ml of natural saline solution, daily for 90 days. The control animals were administered with natural saline solution in the same amount.
The animals were under daily observation during the whole course of investigation. Their behaviour, food and water consumption, state of hair integument and mucous membranes were noted. The rats were weighed weekly. Before the preparation administration and on the 30th, 60th and 90th days thereof the morphological composition and properties of their peripheral blood were examined. Biochemical and coagulological properties of the blood were studied at the experiment completion.

[4] = tested on: rats with acute toxic hepatitis; test: Acute toxic hepatitis induced by CCl4 in rats
Method: Freshly made solution heated to 30–35° C. was introduced into the femoral region at the ratio of 0.5 ml per 100 g of the animal's body weight, daily for 5 days.
In 5 days after the tetrapeptide administration completion, the rats were euthanaised and the investigation results were assessed.
In 20 days after the experiment onset, the rats were euthanaised.
The control animals received natural saline injections according to the same plans.
The state of the animals' liver was assessed by the data of biochemical analysis defining the concentration of protein, bilirubin, cholesterol, alanine aminotransferase (ALT) and aspartate aminotransferase (AST).
Tissue bits were fixed in 10% formalin solution in a 0.1M sodium phosphate buffer (pH 7.4). The histological preparations were stained with haematoxylin-eosin, staining for fat was performed with Sudan-3 and for glycogen—according to McManus.

rats = test: Chronic toxicity, daily intramuscular injection for 6 months; type: in vivo; settings: i.m. 1 μg/kg, 0.1 mg/kg, 1 mg/kg daily for 6 months
Method: The animals were intramuscularly injected with the preparation in the doses of 1 μg/kg, 0.1 mg/kg, 1 mg/kg in 0.5 ml of natural saline solution, daily for 6 months. Their behaviour, food and water consumption, state of hair integument and mucous membranes were noted. The rats were weighed daily during the first three months of the experiment and then once a month. In three months after the administration onset and at the experiment completion, haematological and biochemical investigations were conducted. The functions of the cardiovascular system, liver, pancreas, kidneys and adrenal glands were assessed. At the end of the tetrapeptide administration, part of the animals were subjected to a post mortem examination to assess the state of various segments of their brain and spinal marrow, heart, aorta, lungs, liver, kidneys, endocrine and immune organs.

[5] = after treatment, i.m. once a day 0.01–100 μg/kg, 10–40 days
[6] = against the background of the applied treatment
[7] = Day 5, 1 μg i.m. for 5 days accompanying CCl4 impact
[8] = Day 20, 1 μg i.m. daily for 15 days after CCl4 impact
[9] = Day 20, tetrapeptide after CCl4 impact

O=P1(N(CCCl)CCCl)NCCCO1 (centres unmarked) [Cyclophosphamide, reference compound]
Mean life span (days after the tumour transplantation) (hepatoma-27): 61.50 ± 4.58 days | Tumour growth (hepatoma-27): stable decrease in the tumour growth rate | Animals with complete tumour resolution (hepatoma-27): three

C[C@H](NC(=O)[C@H](CC(=O)O)NC(=O)[C@H](CCC(=O)O)NC(=O)[C@@H](N)CCCCN)C(=O)O [Lys-Glu-Asp-Ala tetrapeptide, lysyl-glutamyl-aspartyl-alanine] (H-KEDA-OH)
Protein synthesis oscillation amplitude ([1]; hepatocytes of older rats): increased significantly | Level of protein synthesis in hepatocytes ([1]; rats aged 4, 8 and 18 months, strongest effect in cells of older animals): raised the level of protein synthesis | Increase in the explant square index (SI) compared to control [2]: 24% | Acute toxic reactions (white mongrel male mice; doses several thousand times exceeding the therapeutic one): does not entail any acute toxic reactions | Death of animals (white mongrel male mice; single intramuscular 1, 2, 3, 4, 5 mg/kg, 72 hours and 14 days): none of the animals died | IgA ([3]; after treatment): 2.30 ± 0.07 g/L | IgG ([3]; after treatment): 13.9 ± 0.9 g/L | IgM ([3]; after treatment): 1.50 ± 0.03 g/L | ALT (peripheral blood) [3, 5]: 40.8 ± 3.1 mmol/L | AST (peripheral blood) [3, 5]: 38.5 ± 2.4 mmol/L | Bilirubin (peripheral blood) [3, 5]: 21.7 µM | Cholesterol (peripheral blood) [3, 5]: 5.1 ± 0.3 mmol/L | GGT (peripheral blood) [3, 5]: 41.6 ± 4.5 mmol/L | Triglycerides (peripheral blood) [3, 5]: 2.2 ± 0.2 mmol/L | Patients noting weakness elimination, improved appetite and increased workability [3, 6]: 93% | Patients with significantly lower intensity of the pain syndrome [3, 6]: 51% | Tumour size relative to controls (times less) (hepatoma-27; 30th day, 1 μg/kg s.c. daily for 10 days): 2.5 times | Mean life span (days after the tumour transplantation) (hepatoma-27): 68.00 ± 1.23 days | Tumour growth (hepatoma-27): stable inhibition of the tumour growth | Proportion of ulcer-bearing animals (hepatoma-27; tetrapeptide from the 39th day after transplantation, cyclophosphamide only on the 43rd day): significant decrease in the proportion of ulcer-bearing animals | Animals with complete tumour resolution (hepatoma-27): Three | Pathologic alterations (general state, blood indices, organs, liver and kidney functions), subacute toxicity (white mongrel rats): no pathologic alterations | ALT [4, 7]: 35.3 ± 3.8 international units per ml | AST [4, 7]: 35.6 ± 4.3 international unit per ml | Cholesterol [4, 7]: 4.1 ± 0.25 mm/l | Protein (blood) [4, 7]: 77.8 ± 3.7 g/L | Total bilirubin [4, 7]: 12.5 ± 2.1 µmol/L | Hepatocytes with fat inclusions ([4]; Day 5, tetrapeptide accompanying CCl4 impact): 49.8 ± 6.3 % | ALT [4, 8]: 5.3 ± 0.98 international units per ml | AST [4, 8]: 11.3 ± 1.9 international unit per ml | Cholesterol [4, 8]: 4.2 ± 0.35 mm/l | Protein (blood) [4, 8]: 83.4 ± 3.4 g/L | Total bilirubin [4, 8]: 14.8 ± 3.2 µmol/L | Hepatocytes with fat inclusions [4, 9]: 10.0 ± 2.1 % | Hepatocytes with glycogen synthesis [4, 9]: 90.0 ± 8.1 % | Hepatocytes with negative staining for fat ([4]; Day 20, tetrapeptide for 15 days after CCl4 impact): 90% | Concentration of protein, bilirubin, cholesterol and aminotransferases in the blood ([4]; tetrapeptide during 15 days after the end of CCl4 impact): restored to the normal values | Pathologic alterations (general state, blood indices, organs, liver and kidney functions), chronic toxicity (rats): no pathologic alterations
